Experimental data as given in patent US8900636B2, “Controlled release compositions” (Evonik Corporation, priority 2003, dated 2014).

Experiment: Stability of free peptide incubated in release medium (HPLC)
Assay type: physicochemical
Conditions: PBS, pH 7.2, 37° C., after 49 days
Experimental: Octreotide acetate as the free peptide was measured to be 95% intact by high-pressure liquid chromatography (HPLC) following incubation in the release medium (PBS, pH 7.2, 37° C.) after 49 days. In contrast, incubation of octreotide acetate PLGA microparticle formulations produced 55% of modified peptide species after 70 days in the release medium (PBS, pH 7.2, 37° C., Table 2). […] The masses found were consistent with random acylation, for example, peptide plus one or two glycolic or lactic acid monomers in any combination. It may be that acylation products arise from attack on PLGA fragments or the polymer backbone by nucleophilic moieties in octreotide. At a lower pH these moieties likely would be protonated reducing their nucleophilicity and consequently the amount of acylated product. It was observed that formation of acylated byproducts for octreotide acetate PLGA microparticles incubated in 100 mM sodium acetate (NaOAc, pH 4.0) buffer was reduced to 1.25% at 49 days, in marked contrast to the results for PBS buffer (55%).

intact peptide by HPLC: 95%
SMILES: C[C@@H](O)[C@@H]1NC(=O)[C@H](CCCCN)NC(=O)[C@@H](Cc2c[nH]c3ccccc23)NC(=O)[C@H](Cc2ccccc2)NC(=O)[C@@H](NC(=O)[C@H](N)Cc2ccccc2)CSSC[C@@H](C(=O)N[C@H](CO)[C@@H](C)O)NC1=O [Octreotide acetate, octreotide acetate]
